Read-outs that look alike come from different tables or passages of the source.
Experiments:
[1] = target: T1, human 5-HT1A receptor (Homo sapiens (Human), UniProt P08908); test: Test 2: binding activity to human 5-HT1A receptor ([3H] 8-OH-DPAT, CHO cell membrane); conditions: [3H] 8-OH-DPAT; read-out: 5-HT1A binding affinity (Ki value)
Procedure: (§1) Test 2: Evaluation of Binding Activity to Human 5-HT1A Receptor, Human D4 Receptor, and Human D2 Receptor
(§2) CHO cell membrane fraction in which human 5-HT1A receptor, human D4 receptor, and human D2 receptor were expressed was purchased from PerkinElmer Co., Ltd. In the evaluation test of binding, the test compound dissolved in DMSO, each receptor membrane preparation diluted with buffer solution, and [3H] […] The nonspecific binding to each receptor was evaluated by a competition binding experiment in the presence of 10 μmol/L 8-OH-DPAT, 10 μmol/L dopamine, or 10 μmol/L spiperone, respectively.

[2] = target: T1, human 5-HT1A receptor; test: Test 1: agonistic activity for human 5-HT1A receptor (aequorin/Gα16 luminescence in CHO-K1 cell); type: cell-based; conditions: for Emax: CHO-K1, 100% = 10 μmol/L endogenous ligand; for EC50: CHO-K1 cell, aequorin luminescence
Procedure: (§3) Test 1: Evaluation of Agonistic Activity for Human 5-HT1A Receptor and Human D4 Receptor
(§4) Aequorin, Gα16 proteins, and each receptor were transiently expressed in CHO-K1 cell (Chinese hamster ovary), and seeded to 384-well plate. The plate was incubated in a CO2 incubator at 37° C. for 24 hours. Each example compound dissolved in DMSO was added thereto, and the change of luminescence amount was measured with Hamamatsu FDSS/μCELL System (Hamamatsu Photonics).

[3] = Test 3-1: metabolic stability test of human liver microsome (0.1 mg/mL); type: in vitro ADME; conditions: test compound 0.1 μmol/L, 37° C., 30 minutes
Procedure: Test 3-1: Metabolic Stability Test of Human Liver Microsome
(§5) The stability of the present compounds for human liver microsome metabolism was evaluated as mentioned below. The used human liver microsome was obtained from Xenontech. Human liver microsome, NADPH, and each test compound were mixed in 25 mmol/L phosphate buffer solution (pH 7.4) to adjust each concentration as shown below, and the mixture was incubated at 37° C. for 30 minutes. • human liver microsome: 0.1 mg/mL • NAPDH: 3.2 mmol/L • test compound: 0.1 μmol/L
(§6) The residual ratio of the test compound in each sample after the incubation for 30 minutes was measured with a LC-MS, and the metabolic stability of human liver microsome was calculated about each test compound with the following formula. Metabolic stability of human liver microsome (mL/min/mg protein)=−LN (residual ratio)/“reaction time”/“concentration of human liver microsome”

[4] = Test 3-2: metabolic stability test of human liver microsome (0.5 or 1.0 mg/mL); type: in vitro ADME; conditions: test compound 0.1 μmol/L, 37° C., 30 minutes
Procedure: Test 3-2: Metabolic Stability Test of Human Liver Microsome
as §5, with “In order to evaluate the metabolic stability of human liver microsomes more precisely, the stability” for “The stability”, “evaluated with a suitable concentration of human liver microsome,” for “evaluated”, “microsome: 0.5 or 1.0” for “microsome: 0.1”
as §6

[5] = test system: SD male rat; test: Test 6: contextual fear conditioning test; type: in vivo; conditions: 10 mg/kg administration
Procedure: Test 6: Contextual Fear Conditioning Test
The antianxiety of the present compounds was evaluated in a manner mentioned below.
The evaluation of an 8-week-old SD male rat with a fear conditioning test system (O'HARA & CO., LTD.) was carried out in 2-day test schedule. On the 1st day of the test, by giving 0.5 mA of electric shock to the rat as unconditioned stimulus 5 times for 6 minutes, the rat was made to learn the relationship the context (the illuminance in the cage: 200 lx) which was given as conditioned stimulus, and phobic stimulus. On the 2nd day, the present compound was subcutaneously administered with saline solution to the rat, or orally administered with methylcellulose suspension to the rat. 0.5 or 1 hour after the administration, the rat was made to softly enter the cage under the condition in which the unconditioned stimulus was not given in the context. The time of cataleptic freezing reaction that the rat took for 5-minute freely-moving period and its ratio were measured. The ratios of cataleptic freezing reaction between the solvent-administration group and the present compound-administration group were compared to be statistically processed.

[6] = Test 4-2: predictive test of human half-life (monkey distribution volume, serum unbound fraction, Test 3-2 stability); conditions: in vivo, predicted using Test 3-2 metabolic stability
Procedure: Test 4-2: Predictive Test of Human Half-Life
(§7) 0.01 mol/L of the present compound in aqueous hydrochloric acid solution was parenterally administered to cynomolgus monkey. 5 minutes, 15 minutes, 30 minutes, 1 hour, 2 hours, 4 hours, 6 hours, and 24 hours after the administration, the blood was collected. The plasma was obtained from the collected blood, the drug concentration in the plasma was measured with a LC-MS, and the monkey distribution volume was calculated from the transition of the concentrations. The unbound fraction rate of the present compound in serum of human and monkey was measured by equilibrium dialysis method.
Using the monkey distribution volume, the unbound fraction rate in serum of human and monkey, and the result of the metabolic stability of human liver microsome which was obtained in Test 3-2, the half-life in human was calculated according to the formula below. “Human distribution volume”=“monkey distribution volume”×“unbound fraction rate in serum of human”/“unbound fraction rate in serum of monkey” “Human hepatic clearance”=(“human hepatic blood flow”×“unbound fraction rate in serum of human”×56.7×“metabolic stability of human liver microsome”)/(“human hepatic blood flow”+“unbound fraction rate in serum of human”×56.7×“metabolic stability of human liver microsome”) “Half-life in human”=0.693×“human distribution volume”/“human hepatic clearance”

[7] = target: T2, human D4 receptor (Homo sapiens (Human), UniProt P21917); test: Test 2: binding activity to human D4 receptor ([3H] dopamine, CHO cell membrane)
T2 sequence (P21917 whole entry): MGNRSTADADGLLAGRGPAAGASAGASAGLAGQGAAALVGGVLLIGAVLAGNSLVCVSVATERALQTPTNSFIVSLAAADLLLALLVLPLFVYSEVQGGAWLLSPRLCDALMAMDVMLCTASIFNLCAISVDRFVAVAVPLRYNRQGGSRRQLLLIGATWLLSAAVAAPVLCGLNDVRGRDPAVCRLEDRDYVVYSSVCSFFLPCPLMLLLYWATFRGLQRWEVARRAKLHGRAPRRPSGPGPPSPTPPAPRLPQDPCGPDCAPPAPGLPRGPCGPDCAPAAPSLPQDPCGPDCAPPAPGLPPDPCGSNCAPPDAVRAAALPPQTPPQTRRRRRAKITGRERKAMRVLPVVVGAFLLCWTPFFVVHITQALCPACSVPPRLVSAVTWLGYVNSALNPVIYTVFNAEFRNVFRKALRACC
Procedure: as §1, §2

[8] = target: T2, human D4 receptor; test: Test 1: agonistic activity for human D4 receptor (aequorin/Gα16 luminescence in CHO-K1 cell); type: cell-based; conditions: for Emax: CHO-K1, 100% = 10 μmol/L endogenous ligand; for EC50: CHO-K1 cell, aequorin luminescence
Procedure: as §3, §4

[9] = Test 4-1: predictive test of human half-life (monkey distribution volume, serum unbound fraction, Test 3-1 stability); conditions: in vivo, predicted using Test 3-1 metabolic stability
Procedure: Test 4-1: Predictive Test of Human Half-Life
as §7
Using the monkey distribution volume, the unbound fraction rate in serum of human and monkey, and the result of the metabolic stability of human liver microsome which was obtained in Test 3-1, the half-life in human was calculated according to the formula below. “Human distribution volume”=“monkey distribution volume”×“unbound fraction rate in serum of human”/“unbound fraction rate in serum of monkey” “Human hepatic clearance”=(“human hepatic blood flow”×“unbound fraction rate in serum of human”×56.7×“metabolic stability of human liver microsome”)/(“human hepatic blood flow”+“unbound fraction rate in serum of human”×56.7×“metabolic stability of human liver microsome”) “Half-life in human”=0.693×“human distribution volume”/“human hepatic clearance”

[10] = target: human D2 receptor (Homo sapiens (Human), UniProt P14416); test: Test 2: binding activity to human D2 receptor ([3H] spiperone, CHO cell membrane); conditions: [3H] spiperone; read-out: D2 binding affinity (Ki value)
Sequence of human D2 receptor (P14416 whole entry): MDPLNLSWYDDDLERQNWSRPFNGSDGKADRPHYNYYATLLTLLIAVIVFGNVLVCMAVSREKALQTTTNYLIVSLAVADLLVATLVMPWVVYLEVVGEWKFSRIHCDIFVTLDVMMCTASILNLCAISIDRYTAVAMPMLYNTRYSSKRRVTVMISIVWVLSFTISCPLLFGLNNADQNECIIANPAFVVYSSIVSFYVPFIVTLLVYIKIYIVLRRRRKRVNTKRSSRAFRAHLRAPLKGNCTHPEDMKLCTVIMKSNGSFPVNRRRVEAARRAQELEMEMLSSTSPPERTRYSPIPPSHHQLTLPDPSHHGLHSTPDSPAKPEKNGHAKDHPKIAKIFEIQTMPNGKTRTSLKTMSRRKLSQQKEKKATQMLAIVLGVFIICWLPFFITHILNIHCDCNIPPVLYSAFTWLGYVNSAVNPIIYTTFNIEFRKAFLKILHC
Procedure: as §1, §2

[11] = target: hERG channel (Homo sapiens (Human), UniProt Q12809); test: Test 5-1: activity for inhibiting hERG channel (whole-cell patch clamp, hERG-CHO cell, Qpatch); type: cell-based; conditions: read-out: hERG inhibition IC50
Sequence of hERG channel (Q12809 whole entry): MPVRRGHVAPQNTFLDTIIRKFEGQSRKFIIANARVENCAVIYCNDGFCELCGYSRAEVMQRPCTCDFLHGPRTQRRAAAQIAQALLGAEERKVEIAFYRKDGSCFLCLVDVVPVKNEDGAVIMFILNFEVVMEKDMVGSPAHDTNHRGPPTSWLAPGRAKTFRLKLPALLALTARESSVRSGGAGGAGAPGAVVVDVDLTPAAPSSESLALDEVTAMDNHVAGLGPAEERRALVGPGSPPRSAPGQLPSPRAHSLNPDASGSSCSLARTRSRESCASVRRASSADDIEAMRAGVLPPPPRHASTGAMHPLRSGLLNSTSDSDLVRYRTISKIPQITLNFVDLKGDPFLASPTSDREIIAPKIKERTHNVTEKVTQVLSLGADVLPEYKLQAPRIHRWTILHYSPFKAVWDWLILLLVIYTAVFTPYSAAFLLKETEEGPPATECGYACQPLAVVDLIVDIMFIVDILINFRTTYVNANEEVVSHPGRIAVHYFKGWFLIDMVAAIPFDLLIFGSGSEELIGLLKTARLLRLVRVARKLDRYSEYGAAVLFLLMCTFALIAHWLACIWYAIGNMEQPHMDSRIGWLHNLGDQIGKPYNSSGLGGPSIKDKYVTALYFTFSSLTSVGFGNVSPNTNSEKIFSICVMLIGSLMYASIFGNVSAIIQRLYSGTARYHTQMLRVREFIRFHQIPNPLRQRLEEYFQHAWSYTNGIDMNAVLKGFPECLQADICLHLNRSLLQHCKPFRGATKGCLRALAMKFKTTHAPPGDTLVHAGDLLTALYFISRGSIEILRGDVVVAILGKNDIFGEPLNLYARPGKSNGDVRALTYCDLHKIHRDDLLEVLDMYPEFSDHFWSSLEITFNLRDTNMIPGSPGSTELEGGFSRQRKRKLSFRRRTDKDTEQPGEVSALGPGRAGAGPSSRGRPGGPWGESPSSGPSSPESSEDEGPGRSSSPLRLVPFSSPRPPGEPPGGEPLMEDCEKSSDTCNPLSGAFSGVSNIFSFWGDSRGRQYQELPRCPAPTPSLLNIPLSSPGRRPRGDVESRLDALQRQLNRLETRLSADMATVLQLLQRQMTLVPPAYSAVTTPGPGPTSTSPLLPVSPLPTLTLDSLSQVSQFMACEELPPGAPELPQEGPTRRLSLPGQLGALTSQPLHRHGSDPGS
Procedure: Test 5-1: Evaluation of Activity for Inhibiting hERG Channel
The activity of the present compound for inhibiting hERG channel was measured by whole-cell patch clamp method with auto patch clamp system, using CHO cell wherein hERG channel involved in human rapidly activating delayed rectifier potassium current (IKr) was forcibly expressed.
hERG-CHO cell purchased from ChanTest was incubated at 37° C. in a CO2 incubator, and the cell was exfoliated from the flask with trypsin to prepare a cell suspension, shortly before the hERG current measurement.
Extracellular fluid: 2 mmol/L CaCl2, 1 mmol/L MgCl2, 10 mmol/L HEPES, 4 mmol/L KCl, 145 mmol/L NaCl, 10 mmol/L glucose
Intracellular fluid: 5.4 mmol/L CaCl2, 1.8 mmol/L MgCl2, 10 mmol/L HEPES, 31 mmol/L KOH, 10 mmol/L EGTA, 120 mmol/L KCl, 4 mmol/L Na2-ATP
Test compound solution: The test compound was dissolved in DMSO by adjusting the concentration to 2 mmol/L or 20 mmol/L to prepare each test compound solution. […] (Measurement of Current Value and Data Analysis)
The cell suspension, the extracellular fluid, the intracellular fluid, and the measurement plate were set in an auto patch clamp system, and the hERG current was measured by whole-cell patch clamp method. […] Each pulse interval was 15 seconds. The data analysis was carried out with Qpatch Assay Software (Biolin Scientific). The test was carried out applying increscently 4 concentrations of each test compound, and the average of the peak tail currents that were obtained by the last 3 stimulations in each applied concentration was determined to be the evaluated data. By using the current inhibition rate for the pre-applied current at each concentration of each test compound, IC50 value was calculated by Hill equation with the software.

[12] = test system: Wistar male rat; test: Test 9: microdialysis test (release amount of intracerebral monoamine, orbitofrontal cortex); type: in vivo; conditions: combination administration with sertraline or single administration
Procedure: Test 9: Microdialysis Test
The effect of the present compound for the release amount of intracerebral monoamine was evaluated in a manner mentioned below.
8-Week-old Wistar male rat was fixed on a brain stereotaxic apparatus under anesthesia. The scalp was incised, the subcutaneous tissue was removed, the position of the bregma was measured, and the installation position of a guide cannula was calculated (the position of the orbitofrontal cortex which defined according to the brain stereotaxic coordinates of Paxinos & Watson (2.0 mm right, 4.2 mm anterior from bregma)). The skull was drilled with a dental drill at the installation position of the guide cannula, and an anchor screw was set about 1 cm posterior to the hole. The guide cannula was set and fixed with a dental cement, and then the scalp was sutured. The animal was released from the brain stereotaxic apparatus, and was moved back to the breeding cage. In the event of the test, the rat was put in an acrylic observable cage, and a dialysis probe was inserted along the guide cannula to connect to a free-moving tube. With an infusion pump, Ringer solution was perfused at 2 μL/min, and the dialysis solution was recovered at 20-minute intervals. […] The recovered dialysis solutions were analyzed with a HPLC-ECD system to determine the contents of norepinephrine (NE), dopamine (DA), and serotonin (5-HT).

[13] = [3H] dopamine, read-out: D4 binding affinity (Ki value)

T1 sequence (P08908 whole entry): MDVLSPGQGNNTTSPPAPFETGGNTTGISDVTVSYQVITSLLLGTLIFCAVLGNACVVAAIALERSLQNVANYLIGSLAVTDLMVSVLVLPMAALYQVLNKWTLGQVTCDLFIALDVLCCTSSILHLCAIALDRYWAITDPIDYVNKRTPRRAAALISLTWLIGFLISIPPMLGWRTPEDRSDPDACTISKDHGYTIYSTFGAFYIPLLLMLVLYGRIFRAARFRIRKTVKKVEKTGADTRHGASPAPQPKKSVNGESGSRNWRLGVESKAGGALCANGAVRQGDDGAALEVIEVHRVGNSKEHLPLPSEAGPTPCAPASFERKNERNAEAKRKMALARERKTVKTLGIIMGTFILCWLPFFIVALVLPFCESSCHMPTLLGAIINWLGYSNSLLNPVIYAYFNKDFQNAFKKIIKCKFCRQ

| SMILES | Ki [1] | Emax [2] | EC50 [2] | Metabolic stability of human liver microsome [3] | Metabolic stability of human liver microsome [4] | decrease of the cataleptic freezing reaction for the solvent-administration group [5] | half-life [6] | Ki [7, 13] | Emax [8] | EC50 [8] | half-life [9] | Ki [10] | IC50 [11] | Ki [7] | serotonin content [12] |
| --- | --- | --- | --- | --- | --- | --- | --- | --- | --- | --- | --- | --- | --- | --- | --- |
| Cc1cccc(C2CCN(CCNC(=O)C3CCOCC3)CC2)n1 [Example 8, N-{2-[4-(6-Methylpyridin-2-yl)piperidin-1-yl]ethyl}-tetrahydro-2H-pyran-4-carboxamide] | 0.0014 µM | 71% | < 0.01 µM | 0.017 mL/min/mg protein | 0.023 mL/min/mg protein | 41.0% | 59 h | 0.111 µM | 65% | 0.0371 µM | 9.2 h | > 10 µM | 44.3 µM |  |  |
| CC(C)(C)C(=O)NCCN1CCC(c2cccc(C(F)(F)F)n2)CC1 [Example 9, 2,2-dimethyl-N-(2-{4-[6-(trifluoromethyl)pyridin-2-yl]piperidin-1-yl}ethyl)propanamide] | 0.0011 µM | 84% | < 0.01 µM | 0.025 mL/min/mg protein | 0.016 mL/min/mg protein |  | 10 h | 0.008 µM | 53% | < 0.01 µM |  | 2.44 µM | 5.9 µM |  |  |
| O=C(NCCN1CCC(c2cccc(C(F)(F)F)n2)CC1)C1CCOCC1 [Example 11, N-(2-{4-[6-(Trifluoromethyl)pyridin-2-yl]piperidin-1-yl}ethyl)-tetrahydro-2H-pyran-4-carboxamide] | 0.0021 µM | 92% | 0.082 µM |  | 0.0075 mL/min/mg protein |  | 17 h |  | 56% | 0.0308 µM | 13 h | > 10 µM |  | 0.044 µM | did not decrease the serotonin content |
